Results taken from the kinase profiling compilation of Christmann-Franck et al. (2016).

Columns and labels:
Experiment in all cases: KINOMEscan competition binding
Conditions in all cases: compound 10.0 µM
BMX (human) = BMX (human) (UniProt P51813)
SLK (human) = SLK (human) (UniProt Q9H2G2)
[1] = test system: EGFR (human), P00533 [G719C]
[2] = test system: FLT3 (human), P36888 [N841I]
CDK9 (human) = CDK9 (human) (UniProt P50750)
FES (human) = FES (human) (UniProt P07332)
[3] = molecular target: JAK3 JH1 catalytic (human) (UniProt P52333)
LATS2 (human) = LATS2 (human) (UniProt Q9NRM7)
FLT3 (human) = FLT3 (human) (UniProt P36888)
MAP4K1 (human) = MAP4K1 (human) (UniProt Q92918)
MAP4K1 (human), sequence (Q92918 whole entry, looked up): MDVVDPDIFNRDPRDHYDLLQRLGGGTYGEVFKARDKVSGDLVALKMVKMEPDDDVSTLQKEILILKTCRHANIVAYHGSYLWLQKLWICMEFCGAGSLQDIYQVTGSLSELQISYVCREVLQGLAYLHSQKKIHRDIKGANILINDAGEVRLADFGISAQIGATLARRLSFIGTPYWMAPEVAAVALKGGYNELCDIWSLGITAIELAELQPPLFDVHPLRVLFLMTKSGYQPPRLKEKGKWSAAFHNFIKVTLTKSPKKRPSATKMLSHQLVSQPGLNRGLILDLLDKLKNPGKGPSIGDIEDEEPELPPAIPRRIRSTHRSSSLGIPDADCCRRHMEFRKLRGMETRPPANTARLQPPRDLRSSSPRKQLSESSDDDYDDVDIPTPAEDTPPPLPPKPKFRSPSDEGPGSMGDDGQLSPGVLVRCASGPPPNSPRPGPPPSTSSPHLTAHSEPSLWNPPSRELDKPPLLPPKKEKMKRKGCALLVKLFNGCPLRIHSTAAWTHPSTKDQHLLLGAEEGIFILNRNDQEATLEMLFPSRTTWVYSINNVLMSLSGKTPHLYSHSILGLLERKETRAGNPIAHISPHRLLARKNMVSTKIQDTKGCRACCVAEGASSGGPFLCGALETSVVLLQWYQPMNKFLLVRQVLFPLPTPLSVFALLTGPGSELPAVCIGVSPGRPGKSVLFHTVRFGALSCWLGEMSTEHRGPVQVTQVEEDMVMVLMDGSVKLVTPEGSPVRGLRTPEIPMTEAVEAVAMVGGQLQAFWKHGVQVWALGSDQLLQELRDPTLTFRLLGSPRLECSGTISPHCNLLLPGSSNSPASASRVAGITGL

CDK2 (human) = CDK2 (human) (UniProt P24941)
HIPK1 (human) = HIPK1 (human) (UniProt Q86Z02)
HIPK1 (human), sequence (Q86Z02 whole entry, looked up): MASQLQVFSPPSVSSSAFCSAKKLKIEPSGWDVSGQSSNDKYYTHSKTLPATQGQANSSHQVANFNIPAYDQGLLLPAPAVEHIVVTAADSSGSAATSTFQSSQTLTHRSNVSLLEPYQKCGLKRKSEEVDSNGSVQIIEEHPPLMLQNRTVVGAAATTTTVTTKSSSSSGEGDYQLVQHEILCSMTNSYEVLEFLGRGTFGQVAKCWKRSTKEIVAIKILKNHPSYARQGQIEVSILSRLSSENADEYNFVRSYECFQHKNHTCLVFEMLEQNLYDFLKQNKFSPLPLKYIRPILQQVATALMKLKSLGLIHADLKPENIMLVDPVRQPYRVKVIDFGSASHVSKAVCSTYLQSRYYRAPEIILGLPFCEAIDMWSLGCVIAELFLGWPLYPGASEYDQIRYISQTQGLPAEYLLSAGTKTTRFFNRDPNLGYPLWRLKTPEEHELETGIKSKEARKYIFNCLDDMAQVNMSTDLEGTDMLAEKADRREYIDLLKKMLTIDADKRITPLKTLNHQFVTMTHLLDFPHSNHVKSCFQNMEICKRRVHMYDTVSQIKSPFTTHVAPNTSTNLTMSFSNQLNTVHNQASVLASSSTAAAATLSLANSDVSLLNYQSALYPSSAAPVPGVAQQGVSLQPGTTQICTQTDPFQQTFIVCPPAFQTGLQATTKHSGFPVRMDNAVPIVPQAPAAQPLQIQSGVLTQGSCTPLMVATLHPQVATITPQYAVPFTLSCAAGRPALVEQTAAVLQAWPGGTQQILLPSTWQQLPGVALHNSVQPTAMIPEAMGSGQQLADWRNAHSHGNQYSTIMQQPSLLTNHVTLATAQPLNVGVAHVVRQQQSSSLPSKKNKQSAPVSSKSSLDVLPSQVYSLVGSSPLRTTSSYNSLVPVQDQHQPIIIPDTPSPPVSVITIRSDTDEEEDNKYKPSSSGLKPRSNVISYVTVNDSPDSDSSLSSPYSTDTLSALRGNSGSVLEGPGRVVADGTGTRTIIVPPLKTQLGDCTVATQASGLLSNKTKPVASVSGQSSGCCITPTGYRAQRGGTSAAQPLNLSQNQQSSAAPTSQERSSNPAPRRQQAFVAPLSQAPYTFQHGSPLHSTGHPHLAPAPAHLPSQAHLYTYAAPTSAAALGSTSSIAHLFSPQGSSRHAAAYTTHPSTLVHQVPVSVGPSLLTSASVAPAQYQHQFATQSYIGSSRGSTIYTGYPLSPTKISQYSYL

CDC2L2 (human) = CDC2L2 (human) (UniProt Q9UQ88)
CIT (human) = CIT (human) (UniProt O14578)
MAPK10 (human) = MAPK10 (human) (UniProt P53779)
ANKK1 (human) = ANKK1 (human) (UniProt Q8NFD2)
MYLK2 (human) = MYLK2 (human) (UniProt Q9H1R3)
MAP4K4 (human) = MAP4K4 (human) (UniProt O95819)
[4] = test system: ABL1 (human), P00519 [E255K]
CSK (human) = CSK (human) (UniProt P41240)
[5] = test system: ABL1 (human), P00519 [H396P]
FLT1 (human) = FLT1 (human) (UniProt P17948)
FLT1 (human), sequence (P17948 whole entry, looked up): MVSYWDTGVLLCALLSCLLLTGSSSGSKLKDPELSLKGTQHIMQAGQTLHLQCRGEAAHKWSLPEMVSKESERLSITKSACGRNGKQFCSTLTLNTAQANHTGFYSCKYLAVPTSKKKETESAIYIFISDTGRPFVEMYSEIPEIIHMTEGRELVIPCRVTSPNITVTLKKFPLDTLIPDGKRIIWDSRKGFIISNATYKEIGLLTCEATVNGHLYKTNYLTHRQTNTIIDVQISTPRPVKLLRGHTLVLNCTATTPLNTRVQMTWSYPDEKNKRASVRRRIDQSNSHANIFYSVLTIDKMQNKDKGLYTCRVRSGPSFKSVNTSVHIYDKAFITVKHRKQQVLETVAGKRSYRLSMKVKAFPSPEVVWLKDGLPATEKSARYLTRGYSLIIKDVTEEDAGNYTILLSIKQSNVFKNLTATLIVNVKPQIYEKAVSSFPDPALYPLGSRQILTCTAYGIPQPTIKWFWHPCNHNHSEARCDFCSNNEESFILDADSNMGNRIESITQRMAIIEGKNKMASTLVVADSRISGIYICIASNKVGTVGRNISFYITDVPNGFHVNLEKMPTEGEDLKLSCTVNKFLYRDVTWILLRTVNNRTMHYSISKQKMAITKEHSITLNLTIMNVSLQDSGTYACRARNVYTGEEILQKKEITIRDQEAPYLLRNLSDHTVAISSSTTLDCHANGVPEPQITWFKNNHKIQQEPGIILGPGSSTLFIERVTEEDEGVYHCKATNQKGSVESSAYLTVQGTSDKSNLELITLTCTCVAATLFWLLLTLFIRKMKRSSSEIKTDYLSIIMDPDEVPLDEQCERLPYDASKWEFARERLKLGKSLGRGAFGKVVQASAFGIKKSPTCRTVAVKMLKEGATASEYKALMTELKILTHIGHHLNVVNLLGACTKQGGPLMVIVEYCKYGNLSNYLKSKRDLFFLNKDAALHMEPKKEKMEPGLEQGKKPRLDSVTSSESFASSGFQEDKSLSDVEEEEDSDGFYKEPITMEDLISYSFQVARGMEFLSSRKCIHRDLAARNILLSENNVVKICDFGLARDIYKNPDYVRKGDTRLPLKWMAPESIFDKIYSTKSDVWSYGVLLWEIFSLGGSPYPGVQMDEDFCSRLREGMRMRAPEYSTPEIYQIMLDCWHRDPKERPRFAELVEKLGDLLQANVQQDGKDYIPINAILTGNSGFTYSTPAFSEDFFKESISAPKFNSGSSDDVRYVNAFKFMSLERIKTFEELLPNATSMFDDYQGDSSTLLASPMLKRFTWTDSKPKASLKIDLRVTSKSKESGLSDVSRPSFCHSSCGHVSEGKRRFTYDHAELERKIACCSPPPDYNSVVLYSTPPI

HCK (human) = HCK (human) (UniProt P08631)
RET (human) = RET (human) (UniProt P07949)
TXK (human) = TXK (human) (UniProt P42681)
CDK5 (human) = CDK5 (human) (UniProt Q00535)
MAP4K3 (human) = MAP4K3 (human) (UniProt Q8IVH8)
CDK11B (human) = CDK11B (human) (UniProt P21127)
LYN (human) = LYN (human) (UniProt P07948)

BMX (human), sequence (P51813 whole entry, looked up): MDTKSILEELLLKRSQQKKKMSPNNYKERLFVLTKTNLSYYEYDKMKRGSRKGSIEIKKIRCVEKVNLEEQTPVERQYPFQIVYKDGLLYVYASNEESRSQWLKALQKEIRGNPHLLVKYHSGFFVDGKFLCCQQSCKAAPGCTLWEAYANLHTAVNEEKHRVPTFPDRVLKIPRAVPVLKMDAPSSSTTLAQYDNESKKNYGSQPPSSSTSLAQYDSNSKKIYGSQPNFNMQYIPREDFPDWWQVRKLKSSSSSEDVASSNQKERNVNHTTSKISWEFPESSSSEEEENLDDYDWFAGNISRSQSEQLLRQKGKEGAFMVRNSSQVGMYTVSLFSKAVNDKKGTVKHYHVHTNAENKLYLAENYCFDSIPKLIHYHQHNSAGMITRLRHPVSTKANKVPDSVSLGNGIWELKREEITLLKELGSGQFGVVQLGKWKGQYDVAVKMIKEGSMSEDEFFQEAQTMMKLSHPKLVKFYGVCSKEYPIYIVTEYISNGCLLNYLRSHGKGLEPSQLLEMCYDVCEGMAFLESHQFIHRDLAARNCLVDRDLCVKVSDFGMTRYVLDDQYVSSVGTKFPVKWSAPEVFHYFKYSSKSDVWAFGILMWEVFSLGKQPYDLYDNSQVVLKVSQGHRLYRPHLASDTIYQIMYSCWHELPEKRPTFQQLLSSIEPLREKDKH
FES (human), sequence (P07332 whole entry, looked up): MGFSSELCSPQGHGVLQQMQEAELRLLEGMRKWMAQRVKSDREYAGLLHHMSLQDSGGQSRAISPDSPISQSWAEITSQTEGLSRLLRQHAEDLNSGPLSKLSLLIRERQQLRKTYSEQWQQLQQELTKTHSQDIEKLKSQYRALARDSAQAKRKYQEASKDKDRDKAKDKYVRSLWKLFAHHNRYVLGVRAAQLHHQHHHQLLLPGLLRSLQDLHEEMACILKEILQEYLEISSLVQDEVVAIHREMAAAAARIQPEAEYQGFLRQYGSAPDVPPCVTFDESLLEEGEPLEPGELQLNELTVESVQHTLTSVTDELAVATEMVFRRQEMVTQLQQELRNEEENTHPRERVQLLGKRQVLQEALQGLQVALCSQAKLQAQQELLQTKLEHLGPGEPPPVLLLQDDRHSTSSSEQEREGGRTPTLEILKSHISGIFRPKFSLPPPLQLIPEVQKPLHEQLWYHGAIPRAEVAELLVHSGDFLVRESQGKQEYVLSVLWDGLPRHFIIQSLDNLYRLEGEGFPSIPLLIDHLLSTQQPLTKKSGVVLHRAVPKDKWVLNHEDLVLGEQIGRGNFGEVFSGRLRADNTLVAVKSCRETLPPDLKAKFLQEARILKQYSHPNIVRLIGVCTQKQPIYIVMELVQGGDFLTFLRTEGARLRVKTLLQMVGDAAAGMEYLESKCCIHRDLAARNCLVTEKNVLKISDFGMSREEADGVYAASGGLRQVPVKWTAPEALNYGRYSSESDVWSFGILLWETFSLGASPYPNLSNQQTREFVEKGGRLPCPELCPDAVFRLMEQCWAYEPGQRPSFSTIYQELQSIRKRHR

kinase still bound, per cent of control (BMX (human)): 2.4%
kinase still bound, per cent of control (SLK (human)): 2%
kinase still bound, per cent of control [1]: 12%
kinase still bound, per cent of control [2]: 0%
residual activity (CDK9 (human)): 5.8%
kinase still bound, per cent of control (FES (human)): 2.2%
kinase still bound, per cent of control [3]: 2.4%
kinase still bound, per cent of control (LATS2 (human)): 13%
kinase still bound, per cent of control (FLT3 (human)): 0.15%
kinase still bound, per cent of control (MAP4K1 (human)): 1.6%
residual activity (CDK2 (human)): 11%
kinase still bound, per cent of control (HIPK1 (human)): 6.2%
residual activity (CDC2L2 (human)): 0.05%
kinase still bound, per cent of control (CIT (human)): 0.1%
kinase still bound, per cent of control (MAPK10 (human)): 12%
kinase still bound, per cent of control (ANKK1 (human)): 23%
kinase still bound, per cent of control (MYLK2 (human)): 8.4%
kinase still bound, per cent of control (MAP4K4 (human)): 0%
kinase still bound, per cent of control [4]: 1.2%
kinase still bound, per cent of control (CSK (human)): 0.45%
kinase still bound, per cent of control [5]: 0.7%
kinase still bound, per cent of control (FLT1 (human)): 1.6%
kinase still bound, per cent of control (HCK (human)): 0.4%
kinase still bound, per cent of control (RET (human)): 0%
kinase still bound, per cent of control (TXK (human)): 12%
residual activity (CDK5 (human)): 19%
kinase still bound, per cent of control (MAP4K3 (human)): 18%
residual activity (CDK11B (human)): 0.35%
kinase still bound, per cent of control (LYN (human)): 0.75%
SMILES: CCN1CCN(Cc2ccc(NC(=O)c3ccc(C)c(Oc4ccnc5[nH]ccc45)c3)cc2C(F)(F)F)CC1
